Key:
[1] = tested on: Interleukin-2 (IL-2) Production; experiment: Inhibition of Interleukin-2 (IL-2) Production in MLR, CTLL-2 bioassay; format: cell-based, mouse; conditions: for IL-2: MLR supernatant at 48 hours
Method: The mixed lymphocyte reaction (MILR) was performed in microtiter plates, with each well containing 5 ×10^5 C57BL/6 responder cells (H-2^b), 5 ×10^5 mitomycin C treated (25 μg/ml mitomycin C at 37° C. for 30 minutes and washed three times pith RPMI 1640 medium) BALB/C stimulator cells ([…]) in 0.2 ml RPMI 1640 medium supplemented with 10% fetal calf serum, 2mM sodium hydrogen carbonate, penicillin 20 (50 unites/ml) and streptomycin (50 μg/ml) . The cells were incubated at 37° C. in humidified atmosphere of 5% carbon dioxide and 95% of air for 48 hours and the supernatant was collected. The FR-900506 substance was dissolved in ethanol and further diluted in RPMI 1640 medium and added to the cultures to give final concentrations of 0.1 μg/ml or less.
The IL-2 activity was measured according to the method described by S. Gillis et. al. [Journal of Inununology, Vol. 120, page 2027, (1978)]. The IL-2 dependent CTLL-2 cell line was used to quantitate IL-2 activity. Cells (5 ×10^3/well) were cultured at 37° C. for 24 hours with various dilutions of IL-2 containing supernatant from MLR. The uptake of ^3H-thymidine was measured by pulsing cultures with 0.5 uCi of 1T-thymidine for 6 hours. The unit value was calculated by dilution analysis of test sample and was compared with a laboratory standard preparation in which 100 units are equivalent to the amount of IL-2 necessary to achieve 50% proliferation of CTLL-2 cells.

[2] = tested on: Skin Allograft Survival in Rats (Fischer donor, WKA recipient); experiment: Skin Allograft Survival in Rats; format: in vivo, rat; conditions: daily treatment, intramuscularly, 14 consecutive days
Method: Vental allografts from donor (Fischer) rats were grafted onto the lateral thoracic area of recipient (WKA) rats. The dressings were removed on day 5. The grafts were inspected daily until rejection which was defined as more than 90% necrosis of the graft epitherium.
The FR-900506 substance was dissolved in olive oil and administered intramuscularly for 14 consecutive days, beginning at the day of transplantation.

[3] = tested on: Antibody formation to sheep erythrocytes (SRBC) in BDF1 mice; experiment: Antibody Formation in mice (haemagglutination test); format: in vivo, mouse
Method: Male BDF1 mice 6 to 8 weeks of age were used for this test. The mice were immunized on day 0 with […] sheep erythrocytes (SRBC) intraperitoneally. Serum aggulutinin titers were determined for each individual animal with sedimentation of erythrocytes by serial two fold dilutions. The titers are expressed as -log2 The FR-900506 substance was administered orally for 5 days from one day before immunization to day 3.

[4] = tested on: Type II Collagen-Induced-Arthritis in female Lewis rats; experiment: Type II Collagen-Induced-Arthritis in Rats; format: in vivo, rat; conditions: observation period of 3 weeks
Method: Collagen was dissolved in cold 0.01 M acetic acid at a concentration of 2 mg/ml. The solution was emulsified in an equal volume of incomplete Freund's adjuvant. A total volume of 0.5 ml of the cold emulsion was injected intradermally at several sites on the back and one or two sites into the tail of female Lewis rats. The FR-900506 substance was dissolved in olive oil and administered orally. Control rats immunized with same amount of type II collagen received oral administrations of olive oil alone. Incidences of the arthritis were observed.

C=CCC1/C=C(\C)CC(C)CC(OC)C2OC(O)(C(=O)C(=O)N3CCCCC3C(=O)OC(/C(C)=C/C3CCC(O)C(OC)C3)C(C)C(O)CC1=O)C(C)CC2OC (stereo not shown) [FR-900506, 17-Allyl-1,14-dihydroxy-12-[2-(4-hydroxy-3-methoxycyclohexyl)-1-methyvinyl]-23-25-dimethoxy-13,19,21,27-tetramethyl-11,28-dioxa-4-azatricyclo[22.3.1.0^4,9]octacos-18-ene-2,3,10,16-tetraone] was tested, and the “Production of IL-2 from mouse MLR (in words)” value [1] was “inhibited the production of Il-2 from mouse MLR”, the IL-2 ([1]; 0.1 nM) was 25.0 units/ml and the IL-2 ([1]; 0.3 nM) was 0.2 units/ml. The IL-2 ([1]; 1 nM) was 0 units/ml, the IL-2 ([1]; 10 nM) was 0 units/ml and the inhibition at 0.0001 µM ([1]; Mus musculus, CTLL-2, 0.1 nM) was 34.4%. It also gave an inhibition at 0.0003 µM ([1]; Mus musculus, CTLL-2, 0.3 nM) of 99.5%, an inhibition at 0.001 µM ([1]; Mus musculus, CTLL-2, 1 nM) of 100% and an inhibition at 0.01 µM ([1]; Mus musculus, CTLL-2, 10 nM) of 100%. For the same compound, the “Effect on skin allograft survival (in words)” value [2] was “clearly prolonged skin allograft survival”, the “Haemagglutination Mean log2 titer ± SE” value ([3]; 10 mg/kg orally for 5 days) was 7.6 ± 0.4 and the “Haemagglutination Mean log2 titer ± SE” value ([3]; 32 mg/kg orally for 5 days) was 6.0 ± 0.45. The “Haemagglutination Mean log2 titer ± SE” value ([3]; 100 mg/kg orally for 5 days) was 4.4 ± 0.75, the ED50 ([3]; Erythrocyte, po, orally for 5 days from one day before immunization to day 3) was 16.9 mg/kg and the “Incidence of Arthritis” value ([4]; 3.2 mg/kg per day orally for 14 days) was 0/5. The “Suppression of arthritis induction (in words)” value ([4]; daily treatment for 14 days) was “complete suppression of arthritis induction”.
